Measurements as given in ChEMBL document CHEMBL1201862, “PubChem BioAssay data set” (2004).
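In this assay, cells in 96-well plates receive the compound at five concentrations for 48 hours. Endpoints are linearly interpolated between the surrounding concentrations. GI50: concentration for 50% inhibition of growth.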 Active and inactive are the calls of the source. Cut-off read from the data, not from the text of the source: active = GI50 up to about 1.1 µM and inactive = higher.

Legend:
Assay in all cases: NCI tumour cell line growth inhibition, 48 h
UO-31 = system: UO-31
HT-29 = system: HT-29
NCI-H522 = system: NCI-H522
U-251 = system: U-251
HOP-92 = system: HOP-92
SK-MEL-2 = system: SK-MEL-2
NCI-H460 = system: NCI-H460
SF-268 = system: SF-268
HOP-62 = system: HOP-62
HCT-116 = system: HCT-116
T47D = system: T47D
SK-MEL-5 = system: SK-MEL-5
SN12C = system: SN12C
SNB-19 = system: SNB-19
SR = system: SR
HL-60 = system: HL-60
Hs-578T = system: Hs-578T
IGROV-1 = system: IGROV-1
SW-620 = system: SW-620
M14 = system: M14
786-0 = system: 786-0
EKVX = system: EKVX
NCI-H23 = system: NCI-H23
BT-549 = system: BT-549
MDA-MB-231 = system: MDA-MB-231
HCC 2998 = system: HCC 2998
A498 = system: A498
SF-295 = system: SF-295
OVCAR-5 = system: OVCAR-5
TK-10 = system: TK-10
ACHN = system: ACHN
A549 = system: A549
LOX IMVI = system: LOX IMVI
SF-539 = system: SF-539
OVCAR-8 = system: OVCAR-8
OVCAR-4 = system: OVCAR-4
NCI-H226 = system: NCI-H226
MDA-N = system: MDA-N
PC-3 = system: PC-3
CAKI-1 = system: CAKI-1
MOLT-4 = system: MOLT-4
SK-MEL-28 = system: SK-MEL-28
MDA-MB-435 = system: MDA-MB-435
K562 = system: K562
NCI/ADR-RES = system: NCI/ADR-RES
OVCAR-3 = system: OVCAR-3
DU-145 = system: DU-145
KM12 = system: KM12
MCF7 = system: MCF7
SNB-75 = system: SNB-75
HCT-15 = system: HCT-15
RXF 393 = system: RXF 393
RPMI-8226 = system: RPMI-8226
UACC-257 = system: UACC-257
CCRF-CEM = system: CCRF-CEM
COLO 205 = system: COLO 205
UACC-62 = system: UACC-62
Malme-3M = system: Malme-3M
SK-OV-3 = system: SK-OV-3

Cc1ccc(S(=O)(=O)C2=C(C(C)C)N=NC2(C)C)cc1
GI50 (UO-31): > 100 µM (inactive) | GI50 (HT-29): > 100 µM (inactive) | GI50 (NCI-H522): 36 µM (inactive) | GI50 (U-251): > 100 µM (inactive) | GI50 (HOP-92): 14.3 µM (inactive) | GI50 (SK-MEL-2): > 100 µM (inactive) | GI50 (NCI-H460): > 100 µM (inactive) | GI50 (SF-268): > 100 µM (inactive) | GI50 (HOP-62): > 100 µM (inactive) | GI50 (HCT-116): 65.5 µM (inactive) | GI50 (T47D): 60.1 µM (inactive) | GI50 (SK-MEL-5): 79.8 µM (inactive) | GI50 (SN12C): > 100 µM (inactive) | GI50 (SNB-19): > 100 µM (inactive) | GI50 (SR): 29.3 µM (inactive) | GI50 (HL-60): > 100 µM (inactive) | GI50 (Hs-578T): 57.5 µM (inactive) | GI50 (IGROV-1): 91.4 µM (inactive) | GI50 (SW-620): > 100 µM (inactive) | GI50 (M14): > 100 µM (inactive) | GI50 (786-0): > 100 µM (inactive) | GI50 (EKVX): > 100 µM (inactive) | GI50 (NCI-H23): 48.8 µM (inactive) | GI50 (BT-549): 48.8 µM (inactive) | GI50 (MDA-MB-231): > 100 µM (inactive) | GI50 (HCC 2998): 73.6 µM (inactive) | GI50 (A498): > 100 µM (inactive) | GI50 (SF-295): 71.8 µM (inactive) | GI50 (OVCAR-5): > 100 µM (inactive) | GI50 (TK-10): > 100 µM (inactive) | GI50 (ACHN): > 100 µM (inactive) | GI50 (A549): 81.3 µM (inactive) | GI50 (LOX IMVI): 88.9 µM (inactive) | GI50 (SF-539): > 100 µM (inactive) | GI50 (OVCAR-8): > 100 µM (inactive) | GI50 (OVCAR-4): 72.9 µM (inactive) | GI50 (NCI-H226): 61.8 µM (inactive) | GI50 (MDA-N): 80 µM (inactive) | GI50 (PC-3): > 100 µM (inactive) | GI50 (CAKI-1): 26.7 µM (inactive) | GI50 (MOLT-4): 18.7 µM (inactive) | GI50 (SK-MEL-28): > 100 µM (inactive) | GI50 (MDA-MB-435): 47.6 µM (inactive) | GI50 (K562): 28.6 µM (inactive) | GI50 (NCI/ADR-RES): 64.7 µM (inactive) | GI50 (OVCAR-3): > 100 µM (inactive) | GI50 (DU-145): 87.1 µM (inactive) | GI50 (KM12): > 100 µM (inactive) | GI50 (MCF7): 62.7 µM (inactive) | GI50 (SNB-75): 95.3 µM (inactive) | GI50 (HCT-15): 73.6 µM | GI50 (RXF 393): 66.5 µM (inactive) | GI50 (RPMI-8226): 9.14 µM (inactive) | GI50 (UACC-257): > 100 µM (inactive)

CC(CSC(=N)N)C(N)=O (configuration not stated)
GI50 (UO-31): > 100 µM (inactive) | GI50 (HT-29): > 100 µM (inactive) | GI50 (NCI-H522): > 100 µM (inactive) | GI50 (U-251): > 100 µM (inactive) | GI50 (HOP-92): > 100 µM (inactive) | GI50 (SK-MEL-2): > 100 µM (inactive) | GI50 (NCI-H460): > 100 µM (inactive) | GI50 (SF-268): > 100 µM (inactive) | GI50 (HOP-62): > 100 µM (inactive) | GI50 (HCT-116): > 100 µM (inactive) | GI50 (T47D): > 100 µM (inactive) | GI50 (SK-MEL-5): > 100 µM (inactive) | GI50 (SN12C): > 100 µM (inactive) | GI50 (SNB-19): > 100 µM (inactive) | GI50 (SR): > 100 µM (inactive) | GI50 (HL-60): > 100 µM (inactive) | GI50 (Hs-578T): > 100 µM (inactive) | GI50 (IGROV-1): > 100 µM (inactive) | GI50 (CCRF-CEM): > 100 µM (inactive) | GI50 (SW-620): > 100 µM (inactive) | GI50 (M14): > 100 µM (inactive) | GI50 (786-0): > 100 µM (inactive) | GI50 (EKVX): > 100 µM (inactive) | GI50 (NCI-H23): > 100 µM (inactive) | GI50 (BT-549): > 100 µM (inactive) | GI50 (MDA-MB-231): > 100 µM (inactive) | GI50 (HCC 2998): > 100 µM (inactive) | GI50 (A498): > 100 µM (inactive) | GI50 (SF-295): > 100 µM (inactive) | GI50 (OVCAR-5): > 100 µM (inactive) | GI50 (COLO 205): > 100 µM (inactive) | GI50 (TK-10): > 100 µM (inactive) | GI50 (ACHN): > 100 µM (inactive) | GI50 (A549): > 100 µM (inactive) | GI50 (LOX IMVI): > 100 µM (inactive) | GI50 (OVCAR-8): > 100 µM (inactive) | GI50 (OVCAR-4): > 100 µM (inactive) | GI50 (NCI-H226): > 100 µM (inactive) | GI50 (MDA-N): > 100 µM (inactive) | GI50 (PC-3): > 100 µM (inactive) | GI50 (CAKI-1): > 100 µM (inactive) | GI50 (SK-MEL-28): > 100 µM (inactive) | GI50 (MDA-MB-435): > 100 µM (inactive) | GI50 (K562): > 100 µM (inactive) | GI50 (NCI/ADR-RES): > 100 µM (inactive) | GI50 (OVCAR-3): > 100 µM (inactive) | GI50 (DU-145): > 100 µM (inactive) | GI50 (UACC-62): > 100 µM (inactive) | GI50 (KM12): > 100 µM (inactive) | GI50 (MCF7): > 100 µM (inactive) | GI50 (SNB-75): > 100 µM (inactive) | GI50 (HCT-15): > 100 µM | GI50 (RXF 393): > 100 µM (inactive) | GI50 (RPMI-8226): > 100 µM (inactive) | GI50 (UACC-257): > 100 µM (inactive) | GI50 (Malme-3M): > 100 µM (inactive) | GI50 (SK-OV-3): > 100 µM (inactive)

COc1cc2ccc1OCc1cccc(n1)COc1ccc(cc1OC)/C=N\c1ccc(cc1)-c1ccc(cc1)/N=C\2
GI50 (UO-31): > 100 µM (inactive) | GI50 (HT-29): > 100 µM (inactive) | GI50 (NCI-H522): > 100 µM (inactive) | GI50 (U-251): > 100 µM (inactive) | GI50 (HOP-92): > 100 µM (inactive) | GI50 (SK-MEL-2): > 100 µM (inactive) | GI50 (NCI-H460): > 100 µM (inactive) | GI50 (SF-268): > 100 µM (inactive) | GI50 (HOP-62): 78 µM (inactive) | GI50 (HCT-116): > 100 µM (inactive) | GI50 (T47D): > 100 µM (inactive) | GI50 (SK-MEL-5): > 100 µM (inactive) | GI50 (SN12C): > 100 µM (inactive) | GI50 (SNB-19): > 100 µM (inactive) | GI50 (SR): > 100 µM (inactive) | GI50 (HL-60): > 100 µM (inactive) | GI50 (Hs-578T): > 100 µM (inactive) | GI50 (IGROV-1): > 100 µM (inactive) | GI50 (CCRF-CEM): > 100 µM (inactive) | GI50 (SW-620): > 100 µM (inactive) | GI50 (M14): > 100 µM (inactive) | GI50 (786-0): > 100 µM (inactive) | GI50 (EKVX): > 100 µM (inactive) | GI50 (NCI-H23): > 100 µM (inactive) | GI50 (BT-549): > 100 µM (inactive) | GI50 (MDA-MB-231): > 100 µM (inactive) | GI50 (HCC 2998): > 100 µM (inactive) | GI50 (A498): > 100 µM (inactive) | GI50 (SF-295): > 100 µM (inactive) | GI50 (COLO 205): > 100 µM (inactive) | GI50 (TK-10): > 100 µM (inactive) | GI50 (ACHN): > 100 µM (inactive) | GI50 (A549): > 100 µM (inactive) | GI50 (LOX IMVI): > 100 µM (inactive) | GI50 (SF-539): > 100 µM (inactive) | GI50 (OVCAR-8): > 100 µM (inactive) | GI50 (OVCAR-4): > 100 µM (inactive) | GI50 (NCI-H226): > 100 µM (inactive) | GI50 (MDA-N): > 100 µM (inactive) | GI50 (PC-3): > 100 µM (inactive) | GI50 (CAKI-1): > 100 µM (inactive) | GI50 (MOLT-4): > 100 µM (inactive) | GI50 (MDA-MB-435): > 100 µM (inactive) | GI50 (K562): > 100 µM (inactive) | GI50 (NCI/ADR-RES): > 100 µM (inactive) | GI50 (OVCAR-3): > 100 µM (inactive) | GI50 (DU-145): > 100 µM (inactive) | GI50 (UACC-62): > 100 µM (inactive) | GI50 (KM12): > 100 µM (inactive) | GI50 (MCF7): > 100 µM (inactive) | GI50 (SNB-75): > 100 µM (inactive) | GI50 (HCT-15): > 100 µM | GI50 (RXF 393): 71.6 µM (inactive) | GI50 (UACC-257): > 100 µM (inactive) | GI50 (Malme-3M): > 100 µM (inactive) | GI50 (SK-OV-3): > 100 µM (inactive)
